Laboratory results from the supplement of paper PMC10477900.
Counter-ions that a name gives are not always drawn.

How the values were obtained:
HCT116 [1] = conditions: 72 h
Description: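 HCT116 control and MTA1-KO (CRISPR) HCT116 cells were seeded in 384-well plates (800 cells/well), treated 16 h later with 237 metabolism-related anticancer drugs at five doses (10 uM, 2 uM, 400 nM, 80 nM, 16 nM) for 72 h, two replicates; viability by CCK8. Values are % inhibition of viability relative to untreated cells, plus fitted IC50.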

HCT116 [2] = experiment: viability inhibition vs untreated; higher = more cytotoxic; conditions: 72 h

SMILES | IC50 (HCT116 [1]; genotype: MTA1-KO) | IC50 (HCT116 [1]; genotype: control) | viability inhibition (HCT116 [2]; genotype: MTA1-KO, 16 nM) | viability inhibition (HCT116 [2]; genotype: MTA1-KO, 80 nM) | viability inhibition (HCT116 [2]; genotype: MTA1-KO, 400 nM) | viability inhibition (HCT116 [2]; genotype: MTA1-KO, 2000 nM) | viability inhibition (HCT116 [2]; genotype: MTA1-KO, 10000 nM) | viability inhibition (HCT116 [2]; genotype: control, 16 nM) | viability inhibition (HCT116 [2]; genotype: control, 80 nM) | viability inhibition (HCT116 [2]; genotype: control, 400 nM) | viability inhibition (HCT116 [2]; genotype: control, 2000 nM) | viability inhibition (HCT116 [2]; genotype: control, 10000 nM)
Nc1ccc(-c2ccc3ncc4ccc(=O)n(-c5cccc(C(F)(F)F)c5)c4c3c2)cn1 [Torin 2] | 0.134 µM | 0.289 µM | -2.56% | 37.4% | 77.4% | 88.6% | 104% | -9.67% | 18.6% | 72.5% | 87% | 108%
NS(=O)(=O)c1cc2c(cc1Cl)NCNS2(=O)=O [Hydrochlorothiazide] | > 10 µM | > 10 µM | -4.21% | -3.92% | -3.75% | -5.89% | -2.82% | 18.6% | 15.8% | 14.2% | -4.67% | 13.5%
COc1ccc(-c2ccc3c(N4CCOC[C@@H]4C)nc(N4CCOC[C@@H]4C)nc3n2)cc1CO [AZD8055] | 0.843 µM | > 10 µM | -21.9% | -16.3% | 15.5% | 41.3% | 67.5% | 0.243% | 13.1% | 36.1% | 46.1% | 37.6%
Cc1ccc(NC(=O)Nc2cc(-c3ccccc3-c3nn[nH]n3)ccc2N(CC(C)C)CC(C)C)cc1 [DO-IN-2] | > 10 µM | > 10 µM | -2.66% | 13.6% | 7.91% | 10.9% | -6.41% | 4.06% | 0.568% | -3.13% | -1.86% | 41.6%
CCN1C(=O)CNc2ncc(-c3ccc(-c4ncn[nH]4)nc3C)nc21 [CC115] | 2.13 µM | 4.96 µM | 5.59% | -19.9% | -8.79% | 27.2% | 81.2% | -13.9% | -10.3% | -8.79% | 7.12% | 74.9%
CC(O)=C(C#N)C(=O)Nc1ccc(C(F)(F)F)cc1 [Teriflunomide] | > 10 µM | > 10 µM | -20.1% | -19.6% | -22.5% | -31.4% | -28.2% | 12.8% | -1.7% | -4.62% | -5.29% | 10.1%
Cc1cc(-n2cccc2)c(S(C)(=O)=O)cc1C(=O)N=C(N)N [Eniporide] | 6.22 µM | > 10 µM | -5.44% | 3.61% | 2.87% | 16.5% | 60.9% | 1.06% | -2.91% | -4.47% | 3.58% | 8.84%
COc1ccc(-c2ccc3ncc4c(c3c2)n(-c2ccc(N3CCNCC3)c(C(F)(F)F)c2)c(=O)n4C)cn1 [BGT226] | 0.0773 µM | 0.0713 µM | 3.91% | 56.3% | 83% | 97.4% | 106% | -4.27% | 60.1% | 90.7% | 99% | 116%
NC(N)=NC(N)=NCCc1ccccc1 [Phenformin hydrochloride] | > 10 µM | > 10 µM | -11.4% | -9.26% | -10.6% | -4.27% | 20.1% | 12.5% | 18.4% | 9.46% | 8.84% | 42.4%
O=C(/C=C/c1ccc2ccccc2n1)c1ccncc1 [PFK015] | 2.71 µM | 2.17 µM | -28% | -23.8% | -16.3% | -14% | 124% | -7.66% | -7.18% | -5.47% | 34% | 124%
Cc1ccc(C(=O)Cn2c3c(sc2=N)CCCC3)cc1 [Pifithrin-α] | > 10 µM | > 10 µM | -1.55% | -3.09% | -7.19% | 3.88% | 32% | 9.06% | 2.07% | 21.3% | 9.85% | 22.1%
C=C(C)[C@H]1Cc2c(ccc3c2O[C@@H]2COc4cc(OC)c(OC)cc4[C@@H]2C3=O)O1 [Rotenone] | 0.0743 µM | < 0.016 µM | 16.6% | 34.1% | 35.3% | 43.4% | 51.6% | 63.1% | 57.1% | 46.9% | 45.4% | 65.4%
O=c1cc(-c2ccc(O)cc2)oc2cc(O)cc(O)c12 [Apigenin] | > 10 µM | > 10 µM | -5.33% | -2.46% | -0.547% | -8.58% | 12.7% | 20.8% | 0.478% | 4.05% | 4.56% | 44.8%
Nc1ncnc2c1ncn2[C@@H]1O[C@H](COP(=O)(O)O)[C@@H](O)[C@H]1O [Adenosine 5'-monophosphate] | > 10 µM | > 10 µM | 1.56% | 3.02% | 2% | -3.03% | 4.43% | 9.4% | 14.9% | 9.53% | 10.4% | 17.4%
COc1cnc(NS(=O)(=O)c2ccc(N)cc2)nc1 [Sulfameter] | > 10 µM | > 10 µM | -10.8% | -13.8% | -0.547% | -4.82% | -3.61% | 0.414% | 5.13% | 12.1% | 8.51% | 0.478%
